From publication PMC9295122, “Sialic Acid Derivatives Inhibit SiaT Transporters and Delay Bacterial Growth” (ACS Chemical Biology, 2022)
Entries after “also recorded” stand apart in the source; their conditions may differ.

Tests used:
[1] = system: P. mirabilis HI4320; assay: Growth in carbon-limited MM with inhibitor only, P. mirabilis; format: cell-based, Proteus mirabilis; conditions: MM with sodium citrate, compound 0.5 mM
Protocol: We first addressed whether these bacteria were able to catabolize the inhibitors and potentially use them as a carbon source for growth. Each strain was grown in carbon-limited defined minimal media (MM), without any carbon source other than sodium citrate for P. mirabilis and casamino acids for S. aureus, and supplemented with 3e and 3f. […] With these promising results, bacterial growth assays were performed in MM supplemented with Neu5Ac at a concentration of 3.2 mM and with 0.5 mM of compounds 3e and 3f (Figure 6a,b). The lag phase duration was determined as the time for the initial population density to increase twofold (see the horizontal dashed lines in Figure 6a,b). The effects were significant in the case of S. aureus, where a delayed growth of 4.4 and 9.4 h (P < 0.001) for compounds 3e and 3f, respectively, was observed. In the case of P. mirabilis, compound 3e indicated a delay in growth (3 h, P = 0.06), while no effect was recorded for compound 3f.
Figure S4. S. aureus COL (A) and P. mirabilis HI4320 (B) grown in defined carbon-limited minimal media (dotted line), with the addition of compound 3e (0.5 mM, solid line) or compound 3f (0.5 mM, dashed line). Average values of two biological replicates (n=2) each including two technical replicates are presented.
(1 picture or pasted object on this page, not shown here)

[2] = system: E. coli JW3193 ΔNanT expressing SaSiaT; assay: Growth of E. coli JW3193 ΔNanT expressing SaSiaT; format: cell-based, Escherichia coli; conditions: for effect on growth on sialic acid: 0.5 mM sialic acid + 1 mM inhibitor; for growth with inhibitor as only carbon source: 1 mM inhibitor
Excerpt: To further investigate bacterial growth inhibition, we employed a model system of E. coli JW3193 ΔNanT expressing the SaSiaT and PmSiaT transporters. We designed these experiments to test if compounds 3e and 3f could inhibit the Neu5Ac transport in vivo because, without an active sialic acid transporter, E. coli JW3193 ΔNanT cannot grow on Neu5Ac.[16],[21]
For the bacterial growth experiments, the pJ422-01 plasmid containing the relevant SiaT or NanT gene was transformed into the E. coli JW3193 ΔnanT strain.[21] Throughout the experiments, strains containing the pJ422-01 plasmid were grown in media supplemented with 25 μg/mL Zeocin. E. coli BW25113, empty E. coli JW3193, and E. coli JW3193 with pJ422-01 containing the NanT gene were also used as controls. Strains were initially plated out from glycerol stocks before a single colony was picked and grown overnight in low salt LB media at 37 °C, with shaking at 180 rpm. Overnight cultures were diluted to an OD600 of 0.05 using low salt LB [supplemented with 1 mM isopropyl β-D-1-thiogalactopyranoside (IPTG)], before they were incubated at 37 °C, with shaking at 250 rpm, until they reached an OD600 of 0.3. At this point, 5 mL of each culture was centrifuged at 6000g for 5 min at 25 °C. The supernatants were removed and the cell pellets were resuspended in 5 mL of M9 MM without glucose prior to being centrifuged again at 6000g for 5 min at 25 °C. This wash step was repeated twice more before cells were resuspended to an OD600 of 0.5 in M9 MM without glucose. A Corning Costar Flat Bottom 96 Well TC-treated microplate was set up with 180 μL of M9 MM containing 1 mM IPTG (for the pJ422-01 strains) and either 5 mM glucose, 0.5 mM sialic acid, and 0.5 mM sialic acid with 1 mM of either inhibitor, or 1 mM of either inhibitor as a carbon source. To the 180 μL of media, 20 μL of each culture were added to the plate (OD600 of 0.05), before it was loaded into a FLUOstar Omega microplate reader (BMG Labtech). Growth was recorded at 600 nm every 10 min at 37 °C, with shaking at 300 rpm. Growth curves represent the mean and standard deviation of measurement from triplicate measurements (glucose/no carbon source in duplicate).
Fig. S5. Growth of E. coli JW3193 ΔNanT expressing the SaSiaT and PmSiaT transporters from a plasmid and using various carbon sources and in the presence or absence of inhibitors, 3e and 3f. (A) SaSiaT is expressed from a plasmid in the E. coli strain JW3193 ΔNanT, where the native sialic acid transporter (NanT) is deleted. The strain grows normally when in media with glucose (black line). There is no growth in the absence of any carbon source (grey line). In the presence of sialic acid at 0.5 mM the strain grows to an OD of ~0.5 (red line), showing that the transporter is functional. There is no growth in the […]

Compound | ability to catabolize compound (growth vs MM only) [1] | effect on growth on sialic acid [2] | growth with inhibitor as only carbon source [2]
CC(=O)NC1C(OCc2cc(Br)cc(Br)c2)CC(O)(C(=O)O)OC1C(O)C(O)CO (stereo not drawn) [Compound 3f] | no ability to catabolize | no effect on growth; also recorded: neither inhibitor seemed to alter bacterial growth | no growth
CC(=O)NC1C(OCc2cc(F)cc(F)c2)CC(O)(C(=O)O)OC1C(O)C(O)CO (stereo not drawn) [Compound 3e] | no ability to catabolize | no effect on growth; also recorded: neither inhibitor seemed to alter bacterial growth | no growth
